Here are results for one molecule from patent US6337401B1, “Fluoromethoxyacrylic acid derivatives and their use as pest control agents” (Bayer Aktiengesellschaft, priority 1995, dated 2002).

Assay type in all cases: in vivo
For one experiment, the system named is Plasmopara viticola. Briefly: Plasmopara test (vine)/protective. The conditions noted are these: protective spray, active compound concentration 100 ppm, evaluation 6 days after inoculation. The protocol:
Plasmopara Test (Vine)/Protective Solvent: 4.7 parts by weight of acetone Emulsifier: 0.3 part by weight of alkylaryl polyglycol ether To produce a suitable preparation of active compound, 1 part by weight of active compound is mixed with the stated amounts of solvent and emulsifier, and the concentrate is diluted with water to the desired concentration. To test for protective activity, young plants are sprayed with the preparation of active compound. After the spray coating has dried on, the plants are inoculated with an aqueous spore suspension of Plasmopara viticola and then remain in a humidity chamber at 20 to 22° C. and 100% relative atmospheric humidity for 1 day. The plants are then placed in a greenhouse at 21° C. and about 90% atmospheric humidity for 5 days. The plants are then moistened and placed in a humidity chamber for 1 day. Evaluation is carried out 6 days after the inoculation.

The subject of another experiment is Uncinula necator. Put plainly: Uncinula test (vine)/protective. The note with it: protective spray, evaluation 14 days after inoculation. The protocol:
(§1) Uncinula Test (Vine)/Protective Solvent: 4.7 parts by weight of acetone Emulsifier: 0.3 part by weight of alkylaryl polyglycol ether To produce a suitable preparation of active compound, 1 part by weight of active compound is mixed with the stated amounts of solvent and emulsifier, and the concentrate is diluted with water to the desired concentration. To test for protective activity, young plants are sprayed with the preparation of active compound. After the spray coating has dried on, the plants are dusted with conidia of the fungus Uncinula necator. The plants are then placed in a greenhouse at 23 to 24° C. and a relative atmospheric humidity of about 75%. Evaluation is effected 14 days after the inoculation.

The test system of the next experiment is Sphaerotheca fuliginea. Briefly: Sphaerotheca test (cucumber)/protective. The note with it: protective spray, active compound concentration 100 ppm, evaluation 10 days after inoculation. The method, then:
as §1, with “Sphaerotheca Test (Cucumber)/Protective” for “Uncinula Test (Vine)/Protective”, “Sphaerotheca Test (Cucumber)/Protective Solvent: 4.7” for “Uncinula Test (Vine)/Protective Solvent: 4.7”, “the fungus Sphaerotheca fuliginea. The plants” for “the fungus Uncinula necator. The plants”, “C. and at a relative” for “C. and a relative”, “Evaluation is carried out 10 days after” for “Evaluation is effected 14 days after”

A further experiment deals with Venturia inaequalis. Put plainly: Venturia test (apple)/protective. The conditions noted are these: protective spray, active compound concentration 10 ppm, evaluation 12 days after inoculation. The protocol: Venturia Test (Apple)/Protective Solvent: 4.7 parts by weight of acetone Emulsifier: 0.3 part by weight of alkylaryl polyglycol ether To produce a suitable preparation of active compound, 1 part by weight of active compound is mixed with the stated amounts of solvent and emulsifier, and the concentrate is diluted with water to the desired concentration. To test for protective activity, young plants are sprayed with the preparation of active compound. After the spray coating has dried on, the plants are inoculated with an aqueous conidia suspension of the apple scab causative organism Venturia inaequalis and then left in an incubation cabin at 20° C. and 100% relative atmospheric humidity for 1 day. The plants are then placed in a greenhouse at 20° C. and a relative atmospheric humidity of about 70%. Evaluation is carried out 12 days after the inoculation.

Experiment [1] deals with Erysiphe graminis f.sp. hordei. Briefly: Erysiphe test (barley)/protective. The note with it: protective spray, application rate 250 g/ha, evaluation 7 days after inoculation. The protocol:
Erysiphe Test (Barley)/Protective Solvent: 10 parts by weight of N-methyl-pyrrolidone Emulsifier: 0.6 part by weight of alkylaryl polyglycol ether To produce a suitable preparation of active compound, 1 part by weight of active compound is mixed with the stated amounts of solvent and emulsifier, and the concentrate is diluted with water to the desired concentration. To test for protective activity, young plants are sprayed with the preparation of active compound at given application rate. After the spray coating has dried on, the plants are dusted with spores of Erysiphe graminis f.sp. hordei. The plants are placed in a greenhouse at a temperature of about 20° C. and a relative atmospheric humidity of about 80%, in order to promote the development of powdery mildew pustules. Evaluation is carried out 7 days after the inoculation.

Another experiment deals with Leptosphaeria nodorum. Put plainly: Leptosphaeria nodorum test (wheat)/protective. The conditions noted are these: protective spray, application rate 250 g/ha, evaluation 10 days after inoculation. The method, then: Leptosphaeria nodorun Test (Wheat)/Protective Solvent: 10 parts by weight of N-methyl-pyrrolidone Emulsifier: 0.6 part by weight of alkylaryl polyglycol ether To produce a suitable preparation of active compound, 1 part by weight of active compound is mixed with the stated amounts of solvent and emulsifier, and the concentrate is diluted with water to the desired concentration. To test for protective activity, young plants are sprayed with the preparation of active compound. After the spray coating has dried on, the plants are sprayed with a spore suspension of Leptosphaeria nodorum. The plants remain for 48 hours in an incubation cabin at 20° C. and 100% relative atmospheric humidity. The plants are placed in a greenhouse at a temperature of about 15° C. and a relative atmospheric humidity of about 80%. Evaluation is effected 10 days after the inoculation.

`COC(=O)/C(=C/OCF)c1ccccc1Oc1nc(-c2ccc(Br)cc2)ns1` [Example 2, methyl 2-{2-[3-(4-bromophenyl)-1,2,4-thiadiazol-5-yloxy]-phenyl}-3-fluoromethoxy-acrylate]: the “Efficacy in % of the untreated control” value in the experiment on Plasmopara viticola is given as 100%; with Uncinula necator (active compound concentration 25 ppm (table)), 100%; in the experiment with Sphaerotheca fuliginea it was 100%; in the experiment with Venturia inaequalis it was 100%; in experiment [1], 81%. In the experiment on Uncinula necator (active compound concentration 10 ppm), the Efficacy was found to be 100%. Further, the “Efficacy in %, relative to the untreated control” value with Leptosphaeria nodorum is 88%.
